These compounds were tested against GST tagged IRAK4 (Homo sapiens (Human), UniProt Q9NWZ3) (assay: IRAK4 Kinase Assay (IMAP fluorescence polarization)). Details: 0.5 nM GST tagged IRAK4, 100 μM ATP, 30 minutes at 25° C.
Type: biochemical
Method: The kinase activity of IRAK4 is determined by its ability to catalyze the phosphorylation of a fluorescent polypeptide substrate. The extent of phosphorylation is measured using the IMAP technology (Molecular Devices) where the phosphorylated fluorescent substrate binds to the large M(III)-based nanoparticles which reduces the rotational speed of the substrate and thus increases its fluorescent polarization (FP).
20 μL reaction mixture contains 10 mM TriHCl, pH 7.2, 0.5 nM GST tagged IRAK4 (SignalChem), 100 nM fluorescent peptide substrate (RP7030, Molecular Devices), 100 μM ATP, 1 mM DDT, 1 mM MgCl2, and 0.01% Tween 20. The reaction is initiated by the addition of ATP. After incubation for 30 minutes at 25° C., 60 μL of Progressive IMAP Reagent (Molecular Devices) is added to stop the reaction. Change in RP7030's FP is determined by a FP reader (Analyst HT, LJL BioSystems).

GST tagged IRAK4, sequence (Q9NWZ3 whole entry): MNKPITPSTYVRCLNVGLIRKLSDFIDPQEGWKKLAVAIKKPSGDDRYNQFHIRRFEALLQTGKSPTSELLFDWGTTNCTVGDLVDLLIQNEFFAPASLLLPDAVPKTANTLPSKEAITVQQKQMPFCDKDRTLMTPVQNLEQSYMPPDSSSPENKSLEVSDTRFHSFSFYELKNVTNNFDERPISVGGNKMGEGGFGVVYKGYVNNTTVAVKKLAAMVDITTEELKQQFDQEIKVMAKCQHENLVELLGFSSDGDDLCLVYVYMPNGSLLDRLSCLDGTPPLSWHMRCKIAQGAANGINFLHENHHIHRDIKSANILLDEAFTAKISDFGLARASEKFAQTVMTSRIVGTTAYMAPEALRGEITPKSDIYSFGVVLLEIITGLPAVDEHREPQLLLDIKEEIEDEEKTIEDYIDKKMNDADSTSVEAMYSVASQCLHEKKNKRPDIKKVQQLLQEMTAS

SMILES | IC50
C[C@@H]1CN([C@H]2CC[C@H](Nc3ncnc4ccc(C#N)cc34)CC2)C[C@H](C)O1 [Example 3-9, 4-({trans-4-[(2R,6S)-2,6-dimethylmorpholin-4-yl]cyclohexyl}amino) quinazoline-6-carbonitrile] | 5 nM
CS(=O)(=O)C1CCN([C@H]2CC[C@H](Nc3ncnc4ccc(C#N)cc34)CC2)CC1 [Example 3-10, 4-({trans-4-[4-(methylsulfonyl)piperidin-1-yl]cyclohexyl}amino) quinazoline-6-carbonitrile] | 11 nM
CS(=O)(=O)C1CCN([C@H]2CC[C@H](Nc3ncnc4ccc(C#N)cc34)CC2)C1 (stereo partly drawn) [Example 3-13, 4-({trans-4-[3-(methylsulfonyl)pyrrolidin-1-yl]cyclohexyl}amino) quinazoline-6-carbonitrile] | 14 nM
N#Cc1ccc2ncnc(N[C@H]3CC[C@H](N4CCC(F)CC4)CC3)c2c1 [Example 3-19, 4-{[trans-4-(4-fluoropiperidin-1-yl)cyclohexyl]amino} quinazoline-6-carbonitrile] | 3 nM
CS(=O)(=O)N1CCN([C@H]2CC[C@H](Nc3ncnc4ccc(C#N)cc34)CC2)CC1 [Example 3-20, 4-({trans-4-[4-(methylsulfonyl)piperazin-1-yl]cyclohexyl}amino) quinazoline-6-carbonitrile] | 8 nM
N#Cc1ccc2ncnc(N[C@H]3CC[C@H](NCC(F)(F)F)CC3)c2c1 [Example 3-21, 4-({trans-4-[(2,2,2-trifluoroethyl)amino]cyclo-hexyl}amino)quinazoline-6-carbonitrile] | 512 nM
COCCN[C@H]1CC[C@H](Nc2ncnc3ccc(C#N)cc23)CC1 [Example 3-22, 4-({trans-4-[(2-methoxyethyl)amino]cyclohexyl}amino)quinazoline-6-carbonitrile] | 16 nM
N#Cc1ccc2ncnc(N[C@H]3CC[C@H](NC4CC4)CC3)c2c1 [Example 3-23, 4-{[trans-4-(cyclopropylamino)cyclo-hexyl]amino}quinazoline-6-carbonitrile] | 26 nM
N#Cc1ccc2ncnc(N[C@H]3CC[C@H](N4CCOC5(CC5)C4)CC3)c2c1 [Example 3-26, 4-{[trans-4-(4-oxa-7-azaspiro[2.5]oct-7-yl)cyclohexyl]amino} quinazoline-6-carbonitrile] | 46 nM
N#Cc1ccc2ncnc(N[C@H]3CC[C@H](N4CCOC(CF)C4)CC3)c2c1 (stereo partly drawn) [Example 3-27, 4-({trans-4-[2-(fluoromethyl)morpholin-4-yl]cyclohexyl}amino) quinazoline-6-carbonitrile] | 8 nM
COC1CN([C@H]2CC[C@H](Nc3ncnc4ccc(C#N)cc34)CC2)C1 [Example 3-29, 4-{[trans-4-(3-methoxyazetidin-1-yl)cyclohexyl]amino} quinazoline-6-carbonitrile] | 11 nM
CN1CCN([C@H]2CC[C@H](Nc3ncnc4ccc(C#N)cc34)CC2)CC1 [Example 3-30, 4-{[trans-4-(4-methylpiperazin-1-yl)cyclohexyl]amino} quinazoline-6-carbonitrile] | 17 nM
CN(C1CC1)[C@H]1CC[C@H](Nc2ncnc3ccc(C#N)cc23)CC1 [Example 3-32, 4-({trans-4-[cyclopropyl(methyl)amino]cyclohexyl}amino) quinazoline-6-carbonitrile] | 15 nM
N#Cc1ccc2ncnc(N[C@H]3CC[C@H](N4CCCC(F)(F)C4)CC3)c2c1 [Example 3-33, 4-{[trans-4-(3,3-difluoropiperidin-1-yl)cyclohexyl]amino} quinazoline-6-carbonitrile] | 132 nM
N#Cc1ccc2ncnc(N[C@H]3CC[C@H](N4CCCC(F)C4)CC3)c2c1 (stereo partly drawn) [Example 3-35, 4-{[trans-4-(3-fluoropiperidin-1-yl)cyclohexyl]amino} quinazoline-6-carbonitrile] | 38 nM
CC1(O)CCN([C@H]2CC[C@H](Nc3ncnc4ccc(C#N)cc34)CC2)C1 (stereo partly drawn) [Example 3-36, 4-{[trans-4-(3-hydroxy-3-methylpyrrolidin-1-yl)cyclohexyl]amino} quinazoline-6-carbonitrile] | 25 nM
N#Cc1ccc2ncnc(N[C@H]3CC[C@H](N4CC(N5CCOCC5)C4)CC3)c2c1 [Example 3-37, 4-({trans-4-[3-(morpholin-4-yl)azetidin-1-yl]cyclohexyl}amino) quinazoline-6-carbonitrile] | 41 nM
CO[C@@H]1CCN([C@H]2CC[C@H](Nc3ncnc4ccc(C#N)cc34)CC2)C1 [Example 3-40, 4-({trans-4-[(3R)-3-methoxypyrrolidin-1-yl]cyclohexyl}amino) quinazoline-6-carbonitrile] | 51 nM
N#Cc1ccc2ncnc(N[C@H]3CC[C@H](N4CCC(CN5CCOCC5)CC4)CC3)c2c1 [Example 3-43, 4-({trans-4-[4-(mopholin-4-ylmethyl)piperidin-1-yl]cyclohexyl}amino) quinazoline-6-carbonitrile] | 9 nM
N#Cc1ccc2ncnc(N[C@H]3CC[C@H](N4CCCC4)CC3)c2c1 [Example 3-44, 4-{[trans-4-(pyrrolidin-1-yl)cyclohexyl]amino} quinazoline-6-carbonitrile] | 15 nM
CC(C)(C)OC(=O)N1CCN([C@H]2CC[C@H](Nc3ncnc4ccc(C#N)cc34)CC2)CC1 [Example 3-45, tert-butyl 4-{trans-4-[(6-cyanoquinazolin-4-yl)amino]cyclohexyl} piperazine-1-carboxylate] | 6 nM
N#Cc1ccc2ncnc(N[C@H]3CC[C@H](N4CCCC(CN5CCOCC5)C4)CC3)c2c1 (stereo partly drawn) [Example 3-46, 4-({trans-4-[3-(morpholin-4-ylmethyl)piperidin-1-yl]cyclohexyl}amino) quinazoline-6-carbonitrile] | 7 nM
N#Cc1ccc2ncnc(N[C@H]3CC[C@H](N4C5CCC4COC5)CC3)c2c1 [Example 3-47, 4-{[trans-4-(3-oxa-8-azabicyclo[3.2.1]oct-8-yl)cyclohexyl]amino} quinazoline-6-carbonitrile] | 872 nM
CC1(C)CN([C@H]2CC[C@H](Nc3ncnc4ccc(C#N)cc34)CC2)CCO1 [Example 3-51, 4-{[trans-4-(2,2-dimethylmorpholin-4-yl)cyclohexyl]amino} quinazoline-6-carbonitrile] | 89 nM

The next lines start with the values.

IC50 | SMILES
34 nM | N#Cc1ccc2ncnc(N[C@H]3CC[C@H](N4CCC4)CC3)c2c1 [Example 3-1, 4-{[Trans-4-(azetidin-1-yl)cyclohexyl]amino}quinazoline-6-carbonitrile]
768 nM | N#Cc1ccc2ncnc(N[C@H]3CC[C@@H](N4CCC4)CC3)c2c1 [Example 3-6, 4-{[cis-4-(azetidin-1-yl)cyclohexyl]amino} quinazoline-6-carbonitrile]
96 nM | CC1OCCN([C@H]2CC[C@H](Nc3ncnc4ccc(C#N)cc34)CC2)C1C (stereo partly drawn) [Example 3-7, 4-{[trans-4-(2,3-dimethylmorpholin-4-yl)cyclohexyl]amino} quinazoline-6-carbonitrile]
2550 nM | CC1OCCN([C@H]2CC[C@@H](Nc3ncnc4ccc(C#N)cc34)CC2)C1C (stereo partly drawn) [Example 3-8, 4-{[cis-4-(2,3-dimethylmorpholin-4-yl)cyclohexyl]amino} quinazoline-6-carbonitrile]
114 nM | N#Cc1ccc2ncnc(N[C@H]3CC[C@H](N4C[C@@H]5C[C@H]4CO5)CC3)c2c1 [Example 3-18, 4-({trans-4-[(1S,4S)-2-oxa-5-azabicyclo[2.2.1]hept-5-yl]cyclohexyl}amino) quinazoline-6-carbonitrile]
11 nM | N#Cc1ccc2ncnc(N[C@H]3CC[C@H](N4CCOC5CCCC54)CC3)c2c1 (stereo partly drawn) [Example 3-24, 4-({trans-4-[(4aS,7aS or 4aR,7aR)-hexahydrocyclopenta[b] [1,4]oxazin-4(4aH)-yl]cyclohexyl}amino) quinazoline-6-carbonitrile]
53 nM | N#Cc1ccc2ncnc(N[C@H]3CC[C@H](N4CCCC5COCCC54)CC3)c2c1 (stereo partly drawn) [Example 3-25, 4-{[trans-4-(hexahydro-2H-pyrano[4,3-b]pyridin-1(5H)-yl)cyclohexyl]amino} quinazoline-6-carbonitrile]
47 nM | C[C@H]1COCCN1[C@H]1CC[C@H](Nc2ncnc3ccc(C#N)cc23)CC1 [Example 3-28, 4-({trans-4-[(3S)-3-methylmorpholin-4-yl]cyclohexyl}amino) quinazolin-6-carbonitrile]
10 nM | C[C@@H]1COCCN1[C@H]1CC[C@H](Nc2ncnc3ccc(C#N)cc23)CC1 [Example 3-31, 4-({trans-4-[(3R)-3-methylmorpholin-4-yl]cyclohexyl}amino) quinazoline-6-carbonitrile]
33 nM | N#Cc1ccc2ncnc(N[C@H]3CC[C@H](N4CC[C@H](O)C4)CC3)c2c1 [Example 3-34, 4-({trans-4-[(3S)-3-hydroxypyrrolidin-1-yl]cyclohexyl}amino) quinazoline-6-carbonitrile]
15 nM | N#Cc1ccc2ncnc(N[C@H]3CC[C@H](N4CC[C@@H](O)C4)CC3)c2c1 [Example 3-38, 4-({trans-4-[(3R)-3-hydroxypyrrolidin-1-yl]cyclohexyl}amino) quinazoline-6-carbonitrile]
174 nM | N#Cc1ccc2ncnc(N[C@H]3CC[C@H](N4CCC5OCCC54)CC3)c2c1 (stereo partly drawn) [Example 3-39, 4-{[trans-4-(hexahydro-4H-furo[3,2-b]pyrrol-4-yl)cyclohexyl]amino} quinazoline-6-carbonitrile]
579 nM | N#Cc1ccc2ncnc(N[C@H]3CC[C@H](N4C[C@H]5CC[C@@H](C4)O5)CC3)c2c1 [Example 3-50, 4-({trans-4-[(1R,5S)-8-oxa-3-azabicylco[3.2.1]oct-3-yl]cyclohexyl}amino) quinazoline-6-carbonitrile]

Reference: patent US9932350B2, “Inhibitors of IRAK4 activity” (MERCK SHARP & DOHME CORP., priority 2014, dated 2018)
